Data reported in patent US20240067632A1, “WEE1 Degrading Compounds and Uses Thereof” (Bristol-Myers Squibb Company, priority 2022, published 2024).
Like-named read-outs stand apart in the source and are kept apart here.

Experiments:
[1] = target: T1, WEE1 (Homo sapiens, UniProt P30291+Q96SW2); assay: WEE1-ePL degradation assay (LentiX-WEE1-ePL-GSPT1-ND cells, InCELL Hunter luminescence, 4 h); format: cell-based; conditions: 293T-LentiX WEE1-ePL cells; for DC50: read-out: 293T-LentiX WEE1-ePL Degradation 4 hr (EC50)
T1 construct: C-terminal ePL-tagged (DiscoverX, Fremont, CA) full-length WEE1 expression construct; expressed in transfected cells; host or cells: LentiX-HEK293T (Invitrogen), lentiviral transduction; co-expressing GSPT1-GN (G576N, lacking the first 158 amino acids)
Outline: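 LentiX-HEK293T cells stably expressing C-terminally ePL-tagged full-length WEE1 were treated with compounds in a 10-point, 3-fold dilution series starting at 1 uM or 10 uM for 4 h at 37 °C. Remaining WEE1-ePL was detected by InCELL Hunter luminescence, and EC50, Ymin and Ymax came from a four-parameter logistic fit against DMSO control.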

[2] = tested on: MKN45 cells; assay: MKN45 cell proliferation assay (Cell-Titer-Glo, 120 h); format: cell-based; conditions: for EC50: Homo sapiens, MKN-45, 120 h, Cell-Titer-Glo, read-out: MKN45 Cell Prolif. 120 hr (EC50); for MKN45 Cell Prolif. 120 hr (Ymin-Obs): minimal percent of DMSO control observed in the concentrations tested
Outline: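 Cells seeded at 400/well onto pre-printed 10-point half-log dilutions (top 1 or 10 uM, 0.1% DMSO final), in triplicate, and grown 120 h at 37 C. Viability by Cell-Titer-Glo luminescence, blank-subtracted and normalised to DMSO; EC50 from four-parameter logistic fit, with observed minimal % of control recorded as Ymin-obs.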

[3] = lower limit of the fit (0 = luciferase inhibitor, Ymax = DMSO control)

Row | 293T-LentiX WEE1-ePL Degradation 4 hr (Ymin) [1, 3] | DC50 [1] | EC50 ([2]; growth inhibition) | 293T-LentiX WEE1-ePL Degradation 4 hr (Ymin) ([1]; lower limit of the fit (Ymin=0 luciferase inhibitor, Ymax DMSO control)) | EC50 [2] | Structure (SMILES) | MKN45 Cell Prolif. 120 hr (Ymin-Obs) [2]
1 | 36 | 17.5 nM | 20.9 nM | – | – | O=C1CCC(N2Cc3cc(O[C@H]4CCN(Cc5ccc6nc(N7CC[C@@H](O)C7)ccc6c5)C4)ccc3C2=O)C(=O)N1 (stereo partly drawn) [3-(5-{[(3S)-1-({2-[(3R)-3-hydroxypyrrolidin-1-yl]quinolin-6-yl}methyl)pyrrolidin-3-yl]oxy}-1-oxo-2,3-dihydro-1H-isoindol-2-yl)piperidine-2,6-dione] | 11.85
2 | 34 | 4.32 nM | 3.91 nM | – | – | CO[C@@H]1CCCN(c2ccc3cc(CN4CC[C@H](Oc5ccc6c(c5)CN(C5CCC(=O)NC5=O)C6=O)C4)ccc3n2)C1 (stereo partly drawn) [3-(5-{[(3S)-1-({2-[(3R)-3-methoxypiperidin-1-yl]quinolin-6-yl}methyl)pyrrolidin-3-yl]oxy}-1-oxo-2,3-dihydro-1H-isoindol-2-yl)piperidine-2,6-dione] | 6.79
3 | 37 | 2.46 nM | 3.67 nM | – | – | CO[C@@H]1CCN(c2ccc3cc(CN4CC[C@H](Oc5ccc6c(c5)CN(C5CCC(=O)NC5=O)C6=O)C4)ccc3n2)C1 (stereo partly drawn) [3-(5-{[(3S)-1-({2-[(3R)-3-methoxypyrrolidin-1-yl]quinolin-6-yl}methyl)pyrrolidin-3-yl]oxy}-1-oxo-2,3-dihydro-1H-isoindol-2-yl)piperidine-2,6-dione] | 8.99
4 | 37 | 67.5 nM | 59.7 nM | – | – | CN1CC[C@H](c2ccc3cc(CN4CC[C@H](Oc5ccc6c(c5)CN(C5CCC(=O)NC5=O)C6=O)C4)ccc3n2)C1 (stereo partly drawn) [3-(5-{[(3S)-1-({2-[(3S)-1-methylpyrrolidin-3-yl]quinolin-6-yl}methyl)pyrrolidin-3-yl]oxy}-1-oxo-2,3-dihydro-1H-isoindol-2-yl)piperidine-2,6-dione] | 12.73
5 | 36.5 | 10.4 nM | 11.4 nM | – | – | O=C1CCC(N2Cc3cc(O[C@H]4CCN(Cc5ccc6nc(N7CC[C@H](O)C7)ccc6c5)C4)ccc3C2=O)C(=O)N1 (stereo partly drawn) [3-(5-{[(3S)-1-({2-[(3S)-3-hydroxypyrrolidin-1-yl]quinolin-6-yl}methyl)pyrrolidin-3-yl]oxy}-1-oxo-2,3-dihydro-1H-isoindol-2-yl)piperidine-2,6-dione] | 7.1
6 | 34 | 5.83 nM | 5.29 nM | – | – | CO[C@H]1CCCN(c2ccc3cc(CN4CC[C@H](Oc5ccc6c(c5)CN(C5CCC(=O)NC5=O)C6=O)C4)ccc3n2)C1 (stereo partly drawn) [3-(5-{[(3S)-1-({2-[(3S)-3-methoxypiperidin-1-yl]quinolin-6-yl}methyl)pyrrolidin-3-yl]oxy}-1-oxo-2,3-dihydro-1H-isoindol-2-yl)piperidine-2,6-dione] | 10.12
7 | 34 | 3.58 nM | 1.58 nM | – | – | CO[C@H]1CCN(c2ccc3cc(CN4CC[C@H](Oc5ccc6c(c5)CN(C5CCC(=O)NC5=O)C6=O)C4)ccc3n2)C1 (stereo partly drawn) [3-(5-{[(3S)-1-({2-[(3S)-3-methoxypyrrolidin-1-yl]quinolin-6-yl}methyl)pyrrolidin-3-yl]oxy}-1-oxo-2,3-dihydro-1H-isoindol-2-yl)piperidine-2,6-dione] | 9.12
8 | 32 | 2.15 nM | 3.59 nM | – | – | O=C1CCC(N2Cc3cc(O[C@H]4CCN(Cc5ccc6nc([C@@H]7CCCOC7)ccc6c5)C4)ccc3C2=O)C(=O)N1 (stereo partly drawn) [3-(5-{[(3S)-1-({2-[(3S)-oxan-3-yl]quinolin-6-yl}methyl)pyrrolidin-3-yl]oxy}-1-oxo-2,3-dihydro-1H-isoindol-2-yl)piperidine-2,6-dione] | 10.6
9 | 37 | 3.2 nM | 6.09 nM | – | – | O=C1CCC(N2Cc3cc(O[C@H]4CCN(Cc5ccc6nc(N7C[C@H]8CCO[C@H]8C7)ccc6c5)C4)ccc3C2=O)C(=O)N1 (stereo partly drawn) [3-(5-{[(3S)-1-({2-[(3aR,6aR)-hexahydro-2H-furo[2,3-c]pyrrol-5-yl]quinolin-6-yl}methyl)pyrrolidin-3-yl]oxy}-1-oxo-2,3-dihydro-1H-isoindol-2-yl)piperidine-2,6-dione] | 14.13

The next lines start with the molecule.

Row | Structure (SMILES) | 293T-LentiX WEE1-ePL Degradation 4 hr (Ymin) [1, 3] | DC50 [1] | EC50 ([2]; growth inhibition) | 293T-LentiX WEE1-ePL Degradation 4 hr (Ymin) ([1]; lower limit of the fit (Ymin=0 luciferase inhibitor, Ymax DMSO control)) | EC50 [2] | MKN45 Cell Prolif. 120 hr (Ymin-Obs) [2]
10 | O=C1CCC(N2Cc3cc(O[C@H]4CCN(Cc5ccc6nc([C@H]7CCCOC7)ncc6c5)C4)ccc3C2=O)C(=O)N1 (stereo partly drawn) [3-(5-{[(3S)-1-({2-[(3R)-oxan-3-yl]quinazolin-6-yl}methyl)pyrrolidin-3-yl]oxy}-1-oxo-2,3-dihydro-1H-isoindol-2-yl)piperidine-2,6-dione] | 28.5 | 16 nM | 8.8 nM | – | – | 6.66
11 | O=C1CCC(N2Cc3cc(O[C@H]4CCN(Cc5ccc6nc([C@H]7CCCOC7)ccc6c5)C4)ccc3C2=O)C(=O)N1 (stereo partly drawn) [3-(5-{[(3S)-1-({2-[(3R)-oxan-3-yl]quinolin-6-yl}methyl)pyrrolidin-3-yl]oxy}-1-oxo-2,3-dihydro-1H-isoindol-2-yl)piperidine-2,6-dione] | 32.33 | 3.33 nM | 5.28 nM | – | – | 12.5
12 | CN1CC[C@H](c2ncc3cc(CN4CC[C@H](Oc5ccc6c(c5)CN(C5CCC(=O)NC5=O)C6=O)C4)ccc3n2)C1 (stereo partly drawn) [3-(5-{[(3S)-1-({2-[(3S)-1-methylpyrrolidin-3-yl]quinazolin-6-yl}methyl)pyrrolidin-3-yl]oxy}-1-oxo-2,3-dihydro-1H-isoindol-2-yl)piperidine-2,6-dione] | – | 248 nM | – | 36.52 | 84.1 nM | 17.35
13 | O=C1CCC(N2Cc3cc(O[C@H]4CCN(Cc5ccc6nc([C@@H]7CCCOC7)ncc6c5)C4)ccc3C2=O)C(=O)N1 (stereo partly drawn) [3-(5-{[(3S)-1-({2-[(3S)-oxan-3-yl]quinazolin-6-yl}methyl)pyrrolidin-3-yl]oxy}-1-oxo-2,3-dihydro-1H-isoindol-2-yl)piperidine-2,6-dione] | 31 | 33.8 nM | 19.4 nM | – | – | 5.31
14 | O=C1CCC(N2Cc3cc(O[C@H]4CCN(Cc5ccc6nc(N7C[C@H]8CCO[C@H]8C7)ncc6c5)C4)ccc3C2=O)C(=O)N1 (stereo partly drawn) [3-(5-{[(3S)-1-({2-[(3aR,6aR)-hexahydro-2H-furo[2,3-c]pyrrol-5-yl]quinazolin-6-yl}methyl)pyrrolidin-3-yl]oxy}-1-oxo-2,3-dihydro-1H-isoindol-2-yl)piperidine-2,6-dione] | 35 | 12.6 nM | 13.4 nM | – | – | 13.09
15 | O=C1CCC(N2Cc3cc(O[C@H]4CCN(Cc5ccc6nc(N7C[C@H]8COC[C@H]8C7)ncc6c5)C4)ccc3C2=O)C(=O)N1 (stereo partly drawn) [3-(5-{[(3S)-1-({2-[(3aR,6aS)-hexahydro-1H-furo[3,4-c]pyrrol-5-yl]quinazolin-6-yl}methyl)pyrrolidin-3-yl]oxy}-1-oxo-2,3-dihydro-1H-isoindol-2-yl)piperidine-2,6-dione] | 38 | 14 nM | 13 nM | – | – | 12.43
